From patent US20220401592A1, “LOW MOLECULAR WEIGHT AND POLYAMIDOAMINE (PAMAM) DENDRIMER BASED PSMA-SPECIFIC DUAL CONTRAST AGENTS FOR OPTICAL AND PHOTOACOUSTIC IMAGING AND THERANOSTIC AGENTS FOR TREATING PROSTATE CANCER” (priority 2021, published 2022)

Key:
[1] = test system: PSMA+ PC3 PIP and PSMA-PC3 flu xenografts; assay: NIR optical imaging, in vivo and ex vivo, of tumor-bearing mice; parameters: species or system NOD-SCID mice; details: for preferential accumulation in PSMA+ PC3 PIP tumors vs PSMA-PC3 flu tumors (optical imaging): whole-body NIR imaging, 800 nm channel
PSMA [2] = target: T1, PSMA (Homo sapiens, UniProt Q04609); assay: In vitro binding assay of conjugates with PSMA+ PC3 PIP cells (vs PSMA- PC3 flu cells); parameters: expressed in transfected cells; host or cells: PSMA+ PC3 PIP (human prostate cancer PC3 subline); PSMA- PC3 flu as negative control; details: for Kd: PSMA+ PC3 PIP cells, fluorescence intensity vs concentration, read-out: Kd, dissociation constant
Target sequence in this assay (Q04609 whole entry): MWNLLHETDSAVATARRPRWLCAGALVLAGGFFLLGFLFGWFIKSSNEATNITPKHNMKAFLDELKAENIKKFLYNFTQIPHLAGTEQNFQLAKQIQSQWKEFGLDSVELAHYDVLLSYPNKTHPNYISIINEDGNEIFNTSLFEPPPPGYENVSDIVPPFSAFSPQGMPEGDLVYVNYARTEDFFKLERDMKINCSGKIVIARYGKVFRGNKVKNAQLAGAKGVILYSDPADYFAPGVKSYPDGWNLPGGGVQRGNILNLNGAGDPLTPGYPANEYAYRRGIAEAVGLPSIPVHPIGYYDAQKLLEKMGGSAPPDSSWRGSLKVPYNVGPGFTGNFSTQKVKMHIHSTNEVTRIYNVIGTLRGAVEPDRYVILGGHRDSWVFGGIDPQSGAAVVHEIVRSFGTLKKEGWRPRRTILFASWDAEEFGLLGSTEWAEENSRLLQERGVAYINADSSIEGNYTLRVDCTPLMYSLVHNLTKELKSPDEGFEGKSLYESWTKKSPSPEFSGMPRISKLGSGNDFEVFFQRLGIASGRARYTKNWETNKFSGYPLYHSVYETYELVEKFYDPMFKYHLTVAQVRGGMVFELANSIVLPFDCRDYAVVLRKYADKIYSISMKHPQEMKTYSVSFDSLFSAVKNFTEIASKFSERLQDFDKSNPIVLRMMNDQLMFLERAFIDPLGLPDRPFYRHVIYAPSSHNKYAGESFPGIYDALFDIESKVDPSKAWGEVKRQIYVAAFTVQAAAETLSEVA

PSMA+ PC3 PIP tumors = assay: In vivo photoacoustic imaging, PSMA+ PC3 PIP tumors; parameters: species or system NOD-SCID mice
PSMA-PC3 flu tumors = assay: In vivo photoacoustic imaging, PSMA-PC3 flu tumors; parameters: species or system NOD-SCID mice
Text: To evaluate potential application of the conjugates in photoacoustic imaging, mice used in optical imaging (described in optical imaging section) were imaged using the Nd:YAG OPO laser and Verasonics Vantage 256 ultrasound research platform. […] Under the assumption that different tissue types yield linearly independent PA signal, the two-dimensional (axial and lateral) PA images of the exogeneous imaging agent (conjugate VI) were decomposed from the acquired three-dimensional photoacoustic volume (axial, lateral, and spectral) using non-negative least squares models. The same speed of sound was considered in the beam formation of US and PA imaging. Thus, the two imaging modalities were co-registered by nature. On top of that, image fusion of the two was achieved by using Daubechies 2 wavelet in wavelet transform.
To record background for PA signal mice were imaged before administration of […] and 5, 24, 48, and 72 h after injection (ai). The average PA intensities within the region-of-interest (ROI) of PSMA^+ PC3 normalized with respect to the pre-administration baseline PIP were 25.1±11.0, 30.2±21.1, and 21.8±7.4 at 24, 48 and 72 h ai, respectively. The average PA image intensities within the ROI of PSMA-PC3 flu were 4.2±4.3, 5.9±2.5, 3.8±1.3 (a.u.) at the same time points. […] The normalized PA image intensities of PSMA^+ PC3 PIP tumors were 1.1±0.9, 3.8±4.1, and 1.6±1.4 (a.u.) at 24, 48 and 72 h ai, respectively, and of PSMA-PC3 flu tumors were 2.0±0.9, 3.4±2.4, and 0.9±0.7 (a.u.), respectively.

PSMA [3] = target: T1, PSMA; details: cited from earlier work
Target sequence in this assay (Q04609 whole entry, species assumed): as the sequence (Q04609 whole entry) above

[4] = Spectrofluorometric test (fluorescence quenching) of conjugates; details: excitation 715 nm, emission 750-850 nm; samples with the same amount of Cy7.5 dye; normalized to conjugate I
Description: (§1) All conjugates were formulated into 600 μL sample containing 2.88-nmol Cy7.5 dye. Then, each sample was equally split into three for spectrophotometric, spectrofluorometric, and PA tests, respectively. To obtain the excitation wavelength for fluorescence evaluation as well as estimating the shape of PA spectra, optical absorbance of all conjugates was first tested on a UIV-Vis spectrophotometer. A range from 650 nm to 950 nm (slightly wider than the tunable stable wavelength range on a Nd:YAG OPO laser, i.e., 700 nm to 900 nm) in step of 1 nm was selected. […] Due to the emission limit on the spectrofluorometer (up to 850 nm), the excitation for spectrofluorometry was set at 715 nm, and the emission was set from 750 nm to 850 nm in step of 1 nm. […] Specifically, to avoid the interference of photobleaching wavelengths from 700 nm to 900 nm in step of 10 nm were tested in PA tubing phantom experiment.

[5] = PA tubing phantom experiment; details: for RPAmax, ratio of maximum PA intensity in NIR range (with respect to I at 770 nm): 700-900 nm in steps of 10 nm; for RPAmax, ratio of maximum PA intensity in NIR range (with respect to I at 770 nm) / RPA780, ratio of photoacoustic intensity at 780 nm (to conjugate I): same amount of Cy7.5 dye; for PB: abbreviation not defined in the footnote
Description: as §1

[6] = Spectrophotometric test (UV-Vis optical absorbance) of conjugates
Description: as §1

With `CN1/C(=C/C=C2C=C(/C=C/C3=[N+](CCCCCC(=O)NCCCC[C@H](NC(=O)CCCCCCC(=O)NCCCC[C@H](NC(=O)N[C@@H](CCC(=O)O)C(=O)O)C(=O)O)C(=O)O)c4ccc5c(S(=O)(=O)O)cc(S(=O)(=O)O)cc5c4C3(C)C)CCC/2)C(C)(C)c2c1ccc1c(S(=O)(=O)[O-])cc(S(=O)(=O)O)cc21` [Conjugate I] the “preferential accumulation in PSMA+ PC3 PIP tumors vs PSMA-PC3 flu tumors (optical imaging)” value [1] was “preferential accumulation”, the Kd (PSMA [2]) was 780 nM and the “average PA intensity within ROI of PSMA+ PC3 PIP, normalized to pre-injection baseline” value (PSMA+ PC3 PIP tumors; 24 h after injection) was 21.6±16.8 a.u. The “average PA intensity within ROI of PSMA+ PC3 PIP, normalized to pre-injection baseline” value (PSMA+ PC3 PIP tumors; 48 h after injection) was 12.7±5.2 a.u, the “average PA intensity within ROI of PSMA+ PC3 PIP, normalized to pre-injection baseline” value (PSMA+ PC3 PIP tumors; 72 h after injection) was 10.0±4.8 a.u and the “average PA image intensity within ROI of PSMA-PC3 flu” value (“average PA image intensity within ROI” for short) (PSMA-PC3 flu tumors; 24 h after injection) was 1.9±1.4 a.u. For the same molecule, the “average PA image intensity within ROI” value (PSMA-PC3 flu tumors; 48 h after injection) was 19±0.9 a.u and the “average PA image intensity within ROI” value (PSMA-PC3 flu tumors; 72 h after injection) was 2.0±1.1 a.u.
In the case of `NCCCCC(NC(=O)NC(CCC(=O)O)C(=O)O)C(=O)O` (stereo not drawn) [KEU, Lys-Glu-urea], the “affinity to PSMA” value (PSMA [3]) is listed as “picomolar”.
With “G4(Cy7.5)6(SA-KEU)9(Bdiol)53 [Conjugate IV]” the “QR (quenching rate)” value [4] was 4.4%, the “RPAmax, ratio of maximum PA intensity in NIR range (with respect to I at 770 nm)” value (“RPAmax, ratio of maximum PA intensity” below) [5] was 48.1% and the “RPA780, ratio of photoacoustic intensity at 780 nm (to conjugate I)” value (shortened to “RPA780, ratio of photoacoustic intensity”) [5] was 49.0%. For the same molecule, the PB [5] was 0.037 %/sec, the “ex vivo fluorescence intensity PSMA+ PC3 PIP/PSMA-PC3 flu ratio” value ([1]; dissected tissues 72 h after injection of 100 μg (3.72 nmol)) was 6.2 and the “preferential accumulation in PSMA+ PC3 PIP tumors vs PSMA-PC3 flu tumors (optical imaging)” value [1] was “highly specific accumulation”. The “uptake by PSMA+ PC3 PIP cells compared to PSMA-PC3 flu cells” value (PSMA [2]) was “significantly higher uptake”, the Kd (PSMA [2]) was 410 nM and the “specific uptake by PSMA+ PC3 PIP in presence of an excess of ZJ-43” value (PSMA [2]; excess of ZJ-43 (PSMA antagonist)) was “inhibited”. The “internalization in PSMA+ PC3 PIP cells compared to PSMA-PC3 flu cells” value (PSMA [2]; microscopic evaluation) was “significantly higher internalization”, the “average PA intensity within ROI of PSMA+ PC3 PIP, normalized to pre-injection baseline” value (PSMA+ PC3 PIP tumors; 24 h after injection) was 25.1±11.0 a.u and the “average PA intensity within ROI of PSMA+ PC3 PIP, normalized to pre-injection baseline” value (PSMA+ PC3 PIP tumors; 48 h after injection) was 30.2±21.1 a.u. For the same molecule, the “average PA intensity within ROI of PSMA+ PC3 PIP, normalized to pre-injection baseline” value (PSMA+ PC3 PIP tumors; 72 h after injection) was 21.8±7.4 a.u, the “average PA image intensity within ROI” value (PSMA-PC3 flu tumors; 24 h after injection) was 4.2±4.3 a.u and the “average PA image intensity within ROI” value (PSMA-PC3 flu tumors; 48 h after injection) was 5.9±2.5 a.u. For the same molecule, the “average PA image intensity within ROI” value (PSMA-PC3 flu tumors; 72 h after injection) was 3.8±1.3 a.u.
With “G4(Cy7.5)s(SA-KEU)12(Bdiol)52 [Conjugate V]” the “QR (quenching rate)” value [4] was 1.3%, the “RPAmax, ratio of maximum PA intensity” value [5] was 111.1% and the “RPA780, ratio of photoacoustic intensity” value [5] was 97.5%. For the same molecule, the PB [5] was 0.057 %/sec, the “ratio of PA intensity to I in 790-900 nm range” value ([5]; maximum ratio, at 860 nm) was ≤ 1257.44% and the Kd (PSMA [2]) was 78 nM. The “absorbance relative to I below 750 nm” value [6] was “up to 1.8 times”.
For “G4(NH2)13(Cy7.5)6(Bdiol)45 [Conjugate VI]”, the “QR (quenching rate)” value [4] was 26.6%, the “RPAmax, ratio of maximum PA intensity” value [5] was 44.6% and the “RPA780, ratio of photoacoustic intensity” value [5] was 45.4%. The “preferential accumulation in PSMA+ PC3 PIP tumors vs PSMA-PC3 flu tumors (optical imaging)” value [1] was “did not show preferential uptake”, the “average PA intensity within ROI of PSMA+ PC3 PIP, normalized to pre-injection baseline” value (PSMA+ PC3 PIP tumors; 24 h after injection) was 1.1±0.9 a.u and the “average PA intensity within ROI of PSMA+ PC3 PIP, normalized to pre-injection baseline” value (PSMA+ PC3 PIP tumors; 48 h after injection) was 3.8±4.1 a.u. The “average PA intensity within ROI of PSMA+ PC3 PIP, normalized to pre-injection baseline” value (PSMA+ PC3 PIP tumors; 72 h after injection) was 1.6±1.4 a.u, the “average PA image intensity within ROI” value (PSMA-PC3 flu tumors; 24 h after injection) was 2.0±0.9 a.u and the “average PA image intensity within ROI” value (PSMA-PC3 flu tumors; 48 h after injection) was 3.4±2.4 a.u. The “average PA image intensity within ROI” value (PSMA-PC3 flu tumors; 72 h after injection) was 0.9±0.7 a.u.
With “G4(NH2)20(Cy7.5)2(SA-KEU)10(Bdiol)32 [Conjugate II]” the “QR (quenching rate)” value [4] was 76.4%, the “RPAmax, ratio of maximum PA intensity” value [5] was 30.3% and the “RPA780, ratio of photoacoustic intensity” value [5] was 30.8%. For the same molecule, the PB [5] was 0.043 %/sec and the Kd (PSMA [2]) was 680 nM.
For “G4(NH2)(Cy7.5)4(SA-KEU)9(Bdiol)30 [Conjugate III]”, the “QR (quenching rate)” value [4] was 174.9%, the “RPAmax, ratio of maximum PA intensity” value [5] was 20.6% and the “RPA780, ratio of photoacoustic intensity” value [5] was 20.9%. It also gave a PB [5] of 0.049 %/sec and a Kd (PSMA [2]) of 270 nM.
